The target of the assay is MET (Homo sapiens, UniProt P08581). Description: pMET (Y1234/[…]) immunoblot densitometry in MET-amplified H1993 and EBC-1 cells, […] h dose response. The class given is cell-based.
MET, sequence (P08581 25-307): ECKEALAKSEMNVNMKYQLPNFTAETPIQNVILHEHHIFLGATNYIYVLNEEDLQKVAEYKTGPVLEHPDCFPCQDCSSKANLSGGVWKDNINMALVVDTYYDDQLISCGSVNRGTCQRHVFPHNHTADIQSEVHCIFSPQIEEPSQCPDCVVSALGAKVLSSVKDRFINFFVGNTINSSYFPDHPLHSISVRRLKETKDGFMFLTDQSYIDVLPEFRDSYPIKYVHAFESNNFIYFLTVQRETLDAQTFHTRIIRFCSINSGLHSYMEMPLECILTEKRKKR
MET, sequence (P08581 308-1390): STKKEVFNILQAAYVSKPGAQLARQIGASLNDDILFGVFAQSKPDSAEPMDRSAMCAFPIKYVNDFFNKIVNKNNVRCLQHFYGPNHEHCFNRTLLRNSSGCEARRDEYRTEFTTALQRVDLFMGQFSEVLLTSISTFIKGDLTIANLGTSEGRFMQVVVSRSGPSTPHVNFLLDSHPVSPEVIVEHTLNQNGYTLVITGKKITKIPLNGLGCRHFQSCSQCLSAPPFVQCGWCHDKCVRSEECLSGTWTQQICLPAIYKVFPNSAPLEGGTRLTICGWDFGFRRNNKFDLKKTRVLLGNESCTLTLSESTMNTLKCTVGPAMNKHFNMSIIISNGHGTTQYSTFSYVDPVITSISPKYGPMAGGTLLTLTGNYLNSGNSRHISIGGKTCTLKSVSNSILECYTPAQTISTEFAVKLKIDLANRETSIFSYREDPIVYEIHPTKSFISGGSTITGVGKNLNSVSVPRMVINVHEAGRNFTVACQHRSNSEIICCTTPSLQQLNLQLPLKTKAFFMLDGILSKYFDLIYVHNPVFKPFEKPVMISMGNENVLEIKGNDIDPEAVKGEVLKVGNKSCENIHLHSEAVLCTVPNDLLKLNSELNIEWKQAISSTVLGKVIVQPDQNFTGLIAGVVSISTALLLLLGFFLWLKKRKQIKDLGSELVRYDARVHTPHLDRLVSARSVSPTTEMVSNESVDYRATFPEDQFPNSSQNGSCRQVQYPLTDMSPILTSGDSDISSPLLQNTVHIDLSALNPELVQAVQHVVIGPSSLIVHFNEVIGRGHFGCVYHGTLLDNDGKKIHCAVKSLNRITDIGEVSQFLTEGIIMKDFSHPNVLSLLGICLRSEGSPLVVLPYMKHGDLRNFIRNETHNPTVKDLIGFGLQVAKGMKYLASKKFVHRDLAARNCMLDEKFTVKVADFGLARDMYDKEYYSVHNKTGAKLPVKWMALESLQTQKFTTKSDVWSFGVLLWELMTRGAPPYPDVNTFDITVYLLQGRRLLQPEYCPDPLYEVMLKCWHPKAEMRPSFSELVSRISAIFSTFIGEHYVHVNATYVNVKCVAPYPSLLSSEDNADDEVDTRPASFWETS

For `C[C@@H](c1ccc2nccn2c1)n1nnc2ncc(-c3cnn(C)c3)nc21` [savolitinib, (S)-1-(1-(Imidazo[1,2-a]pyridin-6-yl)ethyl)-6-(1-methyl-1H-pyrazol-4-yl)-1H-[1,2, 3]triazolo[4,5-b]pyrazine], the midpoint of inhibition, the IC50, lay at 4.12 nM.

For the origin of these results see paper PMC5295379, “Acquired savolitinib resistance in non-small cell lung cancer arises via multiple mechanisms that converge on MET-independent mTOR and MYC activation” (Oncotarget, 2016).
